Data: patent publication US8183263B2 (priority 2007, dated 2012)
pEC50: −log10 of the molar value.

system: HCV replicon; experiment: HCV replicon replication assay (NPT level by captured ELISA); format: cell-based; conditions: Hepatitis C virus, 72 h; Huh-7 HCV replicon-containing cells, three days incubation; read-out: Activity (inhibition of HCV replicon replication)
Method: Compounds claimed herein are tested for the ability to inhibit viral replication of the Hepatitis C replicon in cultured cells in which the HCV replicon construct has been incorporated. The HCV replicon system was described by Bartenschlager, et. al (Science, 285, pp. 110-113 (1999)). The replicon system is predictive of in vivo anti-HCV activity; compounds that are active in humans uniformly evidence activity in the replicon assay.
In this assay HCV replicon containing cells are treated with different concentrations of the test compound to ascertain the ability of the test compound to suppress replication of the HCV replicon. As a positive control, HCV replicon-containing cells are treated with different concentrations of interferon alpha, a known inhibitor of HCV replication. The replicon assay system includes Neomycin Phosphotransferase (NPT) as a component of the replicon itself in order to detect the transcription of replicon gene products in the host cell. Cells in which the HCV replicon is actively replicating have high levels of NPT; the level of NPT is proportional to HCV replication. […] The NPT level of each sample is measured using a captured ELISA.
A protocol for testing compounds for the ability to inhibit viral replication of the Hepatitis C replicon cultured cells in which the replicon construct has been incorporated, follows.
The HCV replicon contains, 5′-3′, the HCV-IRES, the neomycin phosphotransferase (neo) gene, the IRES of encephalomyocarditis virus, which directs translation of HCV sequences NS3 to NS5B, and the 3′-NTR. The sequence of the HCV replicon has been deposited in GenBank (Accession no. AJ242652).
The replicon is transfected into Huh-7 cells using standard methods such as electroporation.
The equipment and materials include, but are not limited to, Huh-7 HCV replicon-containing cells, maintenance media (DMEM (Dulbecco's modified Eagle media) supplemented with 10% FBS, L-glutamine, non-essential amino acids, penicillin (100 units/ml), streptomycin (100 micrograms/ml), and 500 micrograms/ml of Geneticin (G418), screening media (DMEM supplemented with 10% FBS, L-glutamine, non-essential amino acids, penicillin (100 units/ml) and streptomycin (100 micrograms/ml)), 96 well tissue culture plates (flat bottom), 96 well plates (U bottom for drug dilution), Interferon alpha for positive control, fixation reagent (such as methanol: acetone), primary antibody (rabbit anti-NPTII), secondary antibody: Eu—N1 1, and enhancement solution.
HCV replicon-containing cells are rinsed with once PBS once; 2 mls of trypsin are then added. Cells are incubated at 37° C. in a 5% CO2 incubator for 3-5 minutes. 10 mls of complete medium is added to stop the reaction. Cells are blown gently, put into a 15 ml tube, and spun at 1200 rpm for four minutes. The trypsin/medium solution is removed and 5 mls of medium (500 ml DMEM (high glucose)) from BRL catalog #12430-054; 50 mls 10% FBS, 5% Geneticin G418 (50 mg/ml, BRL catalog #10131-035), 5 ml MEM non-essential amino acids (100×BRL #11140-050) and 5 ml pen-strep (BRL #15140-148) is added. The cells and media are mixed carefully
Cells are plated with screening medium (500 ml DMEM (BRL #21063-029), 50 ml FBS (BRL #10082-147) and 5 ml MEM non-essential amino acid (BRL #11140-050) at 6000-7500 cells/100 μl/well of 96 well plate (6-7.5×10^5 cells/10 ml/plate). Plates are placed into 37° C. 5% CO2 incubator overnight.
The following morning, drugs (test compounds or interferon alpha) are diluted in 96 well U bottom plates with media or DMSO/media, depending on the final concentration chosen for screening. Generally for 6 concentrations of each test compounds ranging from 10 micromolar to 0.03 micromolar are applied. 100 μl of the test compound dilution is placed in wells of the 96 well plate containing the HCV replicon cells. Media without drug is added to some wells as a negative controls. DMSO is known to affect cell growth. […]

First: COc1ncc(-c2nc(Nc3ccc(Oc4ccc(C#N)cc4)c(C(F)(F)F)c3)sc2F)cn1 [Cmp 96, 4-(4-(5-fluoro-4-(2-methoxypyrimidin-5-yl)thiazol-2-ylamino)-2-(trifluoromethyl)phenoxy)benzonitrile]
Second: COc1ncc(-c2nc(Nc3ccc(Oc4ccccc4)c(C(F)(F)F)c3)sc2F)cn1 [Cmp 95, 5-fluoro-4-(2-methoxypyrimidin-5-yl)-N-(4-phenoxy-3-(trifluoromethyl)phenyl)thiazol-2-amine]
The pEC50 of the first is higher: > 6.00 for the first, 5.00 to 6.00 for the second.

`CCCCCCCCc1oc2ccc(Nc3nc(-c4cccnc4)c(F)s3)cc2c1Cl` [Cmp 189, N-(3-chloro-2-octylbenzofuran-5-yl)-5-fluoro-4-(pyridin-3-yl)thiazol-2-amine] and `CCCCCCCCOc1cc(Nc2nc(-c3cccnc3)c(F)s2)ccc1C` [Cmp 28, 5-fluoro-N-(4-methyl-3-(octyloxy)phenyl)-4-(pyridin-3-yl)thiazol-2-amine] cannot be ordered by pEC50: > 6.00 for the first, > 6.00 for the second.

`c1ccc(CCc2cc3cc(Nc4nc(-c5cccnc5)cs4)ccc3o2)cc1` [Cmp 153, N-(2-phenethylbenzofuran-5-yl)-4-(pyridin-3-yl)thiazol-2-amine] and `FC(F)(F)c1cc(Nc2nc(-c3cccnc3)cs2)ccc1Oc1ccccc1` [Cmp 47, N-(4-phenoxy-3-(trifluoromethyl)phenyl)-4-(pyridin-3-yl)thiazol-2-amine] cannot be ordered by pEC50: > 6.00 for the first, > 6.00 for the second.

`CCCCCCC[C@H](C)Oc1ccc(Nc2nc(-c3cccnc3)c(F)s2)cc1C(F)(F)F` [Cmp 232, (S)-5-fluoro-N-(4-(nonan-2-yloxy)-3-(trifluoromethyl)phenyl)-4-(pyridin-3-yl)thiazol-2-amine] and `CCCCCCCC(C)Oc1ccc(Nc2nc(-c3cccnc3)c(F)s2)cc1C(F)(F)F` (stereo not drawn) [Cmp 218, 5-fluoro-N-(4-(nonan-2-yloxy)-3-(trifluoromethyl)phenyl)-4-(pyridin-3-yl)thiazol-2-amine] cannot be ordered by pEC50: > 6.00 for the first, > 6.00 for the second.

First: CCCCCCCCOc1ccc(Nc2nc(-c3cccnc3)c(CN(C)C)s2)cc1C(F)(F)F [Cmp 157, 5-((dimethylamino)methyl)-N-(4-(octyloxy)-3-(trifluoromethyl)phenyl)-4-(pyridin-3-yl)thiazol-2-amine]
Second: CCCCCCCCN(C)c1ccc(Nc2nc(-c3cccnc3)c(Cl)s2)cc1C(F)(F)F [Cmp 158, N^4-(5-chloro-4-(pyridin-3-yl)thiazol-2-yl)-N^1-methyl-N^1-octyl-2-(trifluoromethyl)benzene-1,4-diamine]
The pEC50 of the first is lower: 5.00 to 6.00 for the first, > 6.00 for the second. The second is the more potent here.

`CCCCCCCCOc1cc(Nc2nc(-c3ccc(F)cc3)cs2)ccc1C` [Cmp 45, 4-(4-fluorophenyl)-N-(4-methyl-3-(octyloxy)phenyl)thiazol-2-amine] and `CCCCCCCCOc1cc(Nc2nc(-c3cnc(OC)nc3)cs2)ccc1C` [Cmp 46, 4-(2-methoxypyrimidin-5-yl)-N-(4-methyl-3-(octyloxy)phenyl)thiazol-2-amine] cannot be ordered by pEC50: > 6.00 for the first, > 6.00 for the second.

`Fc1sc(Nc2ccc(OCCC#CC3CCCC3)c(C(F)(F)F)c2)nc1-c1cccnc1` [Cmp 191, N-(4-(4-cyclopentylbut-3-ynyloxy)-3-(trifluoromethyl)phenyl)-5-fluoro-4-(pyridin-3-yl)thiazol-2-amine] and `Fc1sc(Nc2ccc(OC3Cc4ccccc4C3)c(C(F)(F)F)c2)nc1-c1cccnc1` [Cmp 176, N-(4-(2,3-dihydro-1H-inden-2-yloxy)-3-(trifluoromethyl)phenyl)-5-fluoro-4-(pyridin-3-yl)thiazol-2-amine] cannot be ordered by pEC50: > 6.00 for the first, > 6.00 for the second.

First: CCCCCCCCc1ccc(Nc2nc(-c3ccccc3)c(CC(=O)O)s2)cc1C(F)(F)F [Cmp 219, 2-(2-(4-octyl-3-(trifluoromethyl)phenylamino)-4-phenylthiazol-5-yl)acetic acid]
Second: CCCCCCCCc1ccc(Nc2nc(-c3ccncc3)c(F)s2)cc1C(F)(F)F [Cmp 167, 5-fluoro-N-(4-octyl-3-(trifluoromethyl)phenyl)-4-(pyridin-4-yl)thiazol-2-amine]
The pEC50 of the first is lower: 5.00 to 6.00 for the first, > 6.00 for the second.

`N#Cc1ccc(Oc2ccc(Nc3nc(-c4cccnc4)c(F)s3)cc2C(F)(F)F)cc1` [Cmp 99, 4-(4-(5-fluoro-4-(pyridin-3-yl)thiazol-2-ylamino)-2-(trifluoromethyl)phenoxy)benzonitrile] and `CCc1ccc(Oc2ccc(Nc3nc(-c4cccnc4)c(F)s3)cc2C(F)(F)F)cc1` [Cmp 98, N-(4-(4-ethylphenoxy)-3-(trifluoromethyl)phenyl)-5-fluoro-4-(pyridin-3-yl)thiazol-2-amine] cannot be ordered by pEC50: > 6.00 for the first, > 6.00 for the second.

`Cc1ccc(OCCCc2ccc(Nc3nc(-c4cccnc4)cs3)cc2C(F)(F)F)cc1` [Cmp 118, 4-(pyridin-3-yl)-N-(4-(3-(p-tolyloxy)propyl)-3-(trifluoromethyl)phenyl)thiazol-2-amine] and `FC(F)(F)c1cc(Nc2nc(-c3cccnc3)cs2)ccc1Oc1ccc(Cl)cc1` [Cmp 50, N-(4-(4-chlorophenoxy)-3-(trifluoromethyl)phenyl)-4-(pyridin-3-yl)thiazol-2-amine] cannot be ordered by pEC50: > 6.00 for the first, > 6.00 for the second.

`CCCCCCCCOc1ccc(Nc2nc(-c3ccc4nncn4c3)c(F)s2)cc1C(F)(F)F` [Cmp 214, 4-([1,2,4]triazolo[4,3-a]pyridin-6-yl)-5-fluoro-N-(4-(octyloxy)-3-(trifluoromethyl)phenyl)thiazol-2-amine] and `CCCCCCCCOc1ccc(Nc2nc(-c3cncc(C#N)c3)c(F)s2)cc1C(F)(F)F` [Cmp 181, 5-(5-fluoro-2-(4-(octyloxy)-3-(trifluoromethyl)phenylamino)thiazol-4-yl)nicotinonitrile] cannot be ordered by pEC50: > 6.00 for the first, > 6.00 for the second.

`Cc1ccc(Nc2nc(-c3ccc(F)cc3)cs2)cc1OCC1CCCCC1` [Cmp 42, N-(3-(cyclohexylmethoxy)-4-methylphenyl)-4-(4-fluorophenyl)thiazol-2-amine] and `COc1ncc(-c2csc(Nc3ccc(C)c(OCCOc4ccccc4)c3)n2)cn1` [Cmp 40, 4-(2-methoxypyrimidin-5-yl)-N-(4-methyl-3-(2-phenoxyethoxy)phenyl)thiazol-2-amine] cannot be ordered by pEC50: > 6.00 for the first, > 6.00 for the second.

Compared with `CCCCCCCCOc1ccc(Nc2nc(-c3ccc[n+](C)c3)cs2)cc1C(F)(F)F` [Cmp 142, 1-methyl-3-(2-(4-(octyloxy)-3-(trifluoromethyl)phenylamino)thiazol-4-yl)pyridinium], `CCCCCCCCOc1ccc(Nc2nc(-c3cncc(O)c3)cs2)cc1C(F)(F)F` [Cmp 152, 5-(2-(4-(octyloxy)-3-(trifluoromethyl)phenylamino)thiazol-4-yl)pyridin-3-ol] is higher in pEC50: 5.00 to 6.00 for the first, > 6.00 for the second. The second is the more potent here.

`CCCCCCCCOc1ccc(Nc2nc(-c3cccnc3)c(Cl)s2)cc1C(C)=O` [Cmp 169, 1-(5-(5-chloro-4-(pyridin-3-yl)thiazol-2-ylamino)-2-(octyloxy)phenyl)ethanone] and `CCCCCCCC(=O)c1ccc(Nc2nc(-c3cccnc3)c(F)s2)cc1C(F)(F)F` [Cmp 215, 1-(4-(5-fluoro-4-(pyridin-3-yl)thiazol-2-ylamino)-2-(trifluoromethyl)phenyl)octan-1-one] cannot be ordered by pEC50: > 6.00 for the first, > 6.00 for the second.

First: CCCCCCCCOc1ccc(Nc2nc(-c3ccsc3C(N)=O)c(F)s2)cc1C(F)(F)F [Cmp 188, 3-(5-fluoro-2-(4-(octyloxy)-3-(trifluoromethyl)phenylamino)thiazol-4-yl)thiophene-2-carboxamide]
Second: CCCCCCCCc1ccc(N(C)c2nc(-c3cccnc3)c(F)s2)cc1C(F)(F)F [Cmp 160, 5-fluoro-N-methyl-N-(4-octyl-3-(trifluoromethyl)phenyl)-4-(pyridin-3-yl)thiazol-2-amine]
The pEC50 of the first is higher: > 6.00 for the first, 5.00 to 6.00 for the second. The first is the more potent here.
